Values quoted from earlier work in patent US20260097000A1, “INTRANASAL DELIVERY OF CANNABINOIDS” (priority 2022, published 2026).

Key:
[1] = oral delivery
[2] = rats, oral 10 mg kg^−1 and pulmonary 20 mg kg^−1

C=C(C)[C@@H]1CCC(C)=C[C@H]1c1c(O)cc(CCCCC)cc1O [CBD, cannabidiol]
7-hydroxy-cannabidiol (7-OH-CBD) metabolite share of orally delivered CBD [1]: 40%
CBD levels in the brain [2]: 200 to 300 ng/g
